Measurements: publication PMC10475565 (2023)

Columns and labels:
[1] = test system: d(T2G4T2) (DNA, G4) TTGGGGTT; assay: ITC; conditions: 60 mM KCl; 10 mM sodium cacodylate, 0.5 mM EDTA, pH 7.0, 20 °C
[2] = test system: d(T4G4T4) (DNA, G4) TTTTGGGGTTTT; assay: ITC; conditions: 90 mM KCl; 10 mM sodium cacodylate, 0.5 mM EDTA, pH 7.0, 20 °C; one binding event, isotherm not fitted
[3] = test system: d(TG4T) (DNA, G4) TGGGGT; assay: fluorescent intercalator displacement; conditions: 10 mM sodium cacodylate, 0.5 mM EDTA, pH 7.0, 21-23 °C, thiazole orange displaced, 1 μM neomycin, 1 μM quadruplex
[4] = test system: d(T3G4T3) (DNA, G4) TTTGGGGTTT; assay: ITC; conditions: 60 mM KCl; 10 mM sodium cacodylate, 0.5 mM EDTA, pH 7.0, 20 °C; one binding event, isotherm not fitted
[5] = test system: d(TG4T) (DNA, G4) TGGGGT; assay: ITC; conditions: 60 mM KCl, 10 mM sodium cacodylate, 0.5 mM EDTA, pH 7.0, 20 °C
[6] = test system: d(UG4T) (DNA, G4, 2'-deoxyuridine at 1) UGGGGT; assay: ITC; conditions: 60 mM KCl; 10 mM sodium cacodylate, 0.5 mM EDTA, pH 7.0, 20 °C
[7] = test system: CEB1 (DNA, G4) AGGGGGGAGGGAGGGTGG; assay: ITC; conditions: 60 mM KCl; 10 mM sodium cacodylate, 0.5 mM EDTA, pH 7.0, 20 °C

SMILES: NC[C@@H]1O[C@H](O[C@H]2[C@@H](O)[C@H](O[C@@H]3[C@@H](O)[C@H](N)C[C@H](N)[C@H]3O[C@H]3O[C@H](CN)[C@@H](O)[C@H](O)[C@H]3N)O[C@@H]2CO)[C@H](N)[C@@H](O)[C@@H]1O
- Ka [1]: 59000 M⁻¹
- binding [2]: yes
- % fluorescence change ([3]; 30 mM NaCl): ~ 25%
- % fluorescence change ([3]; 60 mM KCl): ~ 15%
- binding [4]: yes
- Ka1 ([5]; site 1 of 2): 2.10 ± 0.80 × 10^8 M^-1
- Ka [6]: 1.23 ± 0.05 × 10^6 M^-1
- association constant [7]: 723000 M⁻¹

SMILES: NC[C@@H]1O[C@H](O[C@H]2[C@@H](O)[C@H](O[C@@H]3[C@@H](O)[C@H](N)C[C@H](N)[C@H]3O[C@H]3O[C@H](CO)[C@@H](O)[C@H](O)[C@H]3N)O[C@@H]2CO)[C@H](N)[C@@H](O)[C@@H]1O
- binding ([5]; isotherm could not be fitted, 300 μM titrant): weak
